Laboratory results: PubChem BioAssay AID2060603 (Molecular Pharmacology Branch, DTP, NCI, 2025)

Tested on: 422866-222-R5-J1-PDC spheroid viability
Assay: Anticancer human tumor 422866-222-R5-J1-PDC patient-derived pancreatic adenocarcinoma cell line growth inhibition [CLK]
Conditions: spheroids with HUVEC and MSC; for IC50: curve of first compound; for viability, T/C: stronger effect = lower value
In short: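 Patient-derived tumor cells grown as complex spheroids with HUVEC endothelial cells and mesenchymal stem cells, treated with drug combinations. Concentrations descend in half-log steps from near clinical Cmax, or from 10 microM if Cmax unknown.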

[1] = second compound 0.0316 µM, first compound 0.0316 µM
[2] = second compound 0.0316 µM, first compound 0.1 µM
[3] = second compound 0.0316 µM, first compound 0.316 µM
[4] = second compound 0.0316 µM, first compound 1 µM
[5] = second compound 0.1 µM, first compound 0.0316 µM
[6] = second compound 0.1 µM, first compound 0.1 µM
[7] = second compound 0.1 µM, first compound 0.316 µM
[8] = second compound 0.1 µM, first compound 1 µM
[9] = second compound 0.316 µM, first compound 0.0316 µM
[10] = second compound 0.316 µM, first compound 0.1 µM
[11] = second compound 0.316 µM, first compound 0.316 µM
[12] = second compound 0.316 µM, first compound 1 µM
[13] = second compound 1 µM, first compound 0.0316 µM
[14] = second compound 1 µM, first compound 0.1 µM
[15] = second compound 1 µM, first compound 0.316 µM
[16] = second compound 1 µM, first compound 1 µM
[17] = second compound 3.16 µM, first compound 0.0316 µM
[18] = second compound 3.16 µM, first compound 0.1 µM
[19] = second compound 3.16 µM, first compound 0.316 µM
[20] = second compound 3.16 µM, first compound 1 µM
[21] = second compound 10 µM, first compound 0.0316 µM
[22] = second compound 10 µM, first compound 0.1 µM
[23] = second compound 10 µM, first compound 0.316 µM
[24] = second compound 10 µM, first compound 1 µM
[25] = second compound 0.0316 µM, first compound 3.16 µM
[26] = second compound 0.0316 µM, first compound 10 µM
[27] = second compound 0.1 µM, first compound 3.16 µM
[28] = second compound 0.1 µM, first compound 10 µM
[29] = second compound 0.316 µM, first compound 3.16 µM
[30] = second compound 0.316 µM, first compound 10 µM
[31] = second compound 1 µM, first compound 3.16 µM
[32] = second compound 1 µM, first compound 10 µM
[33] = second compound 3.16 µM, first compound 3.16 µM
[34] = second compound 3.16 µM, first compound 10 µM
[35] = second compound 10 µM, first compound 3.16 µM
[36] = second compound 10 µM, first compound 10 µM
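Further: spheroids exposed to agents for seven days before readout.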

CCc1c2c(nc3ccc(O)cc13)-c1cc3c(c(=O)n1C2)COC(=O)[C@]3(O)CC + CNC(=O)c1ccc(Nc2nc(OC3CCCC3)c3c(-c4ccc5nc(C)oc5c4)c[nH]c3n2)c(OC)c1 was tested, and the IC50 (second compound 0.0316 µM) was under 3.16 nM, the IC50 (second compound 0.1 µM) was under 3.16 nM and the IC50 (second compound 0.316 µM) was under 3.16 nM. For the same compound, the IC50 (second compound 1 µM) was under 3.16 nM, the IC50 (second compound 3.16 µM) was under 3.16 nM and the IC50 (second compound 10 µM) was under 3.16 nM. It also gave a viability, T/C (second compound 0.0316 µM, first compound 0.00316 µM) of 45.6%, a viability, T/C (second compound 0.0316 µM, first compound 0.01 µM) of 46.4% and a viability, T/C [1] of 51%. It also gave a viability, T/C [2] of 46.5%, a viability, T/C [3] of 42.7% and a viability, T/C [4] of 16.4%. For the same compound, the viability, T/C (second compound 0.1 µM, first compound 0.00316 µM) was 49.1%, the viability, T/C (second compound 0.1 µM, first compound 0.01 µM) was 43.8% and the viability, T/C [5] was 40.2%. It also gave a viability, T/C [6] of 38%, a viability, T/C [7] of 40% and a viability, T/C [8] of 19.6%. It also gave a viability, T/C (second compound 0.316 µM, first compound 0.00316 µM) of 42.3%, a viability, T/C (second compound 0.316 µM, first compound 0.01 µM) of 33.2% and a viability, T/C [9] of 30.9%. The viability, T/C [10] was 38.5%, the viability, T/C [11] was 27.6% and the viability, T/C [12] was 24.5%. For the same compound, the viability, T/C (second compound 1 µM, first compound 0.00316 µM) was 46.8%, the viability, T/C (second compound 1 µM, first compound 0.01 µM) was 28.1% and the viability, T/C [13] was 38.2%. The viability, T/C [14] was 42.4%, the viability, T/C [15] was 20.8% and the viability, T/C [16] was 25.8%. The viability, T/C (second compound 3.16 µM, first compound 0.00316 µM) was 41.9%, the viability, T/C (second compound 3.16 µM, first compound 0.01 µM) was 38.7% and the viability, T/C [17] was 33%. For the same compound, the viability, T/C [18] was 39.8%, the viability, T/C [19] was 22.6% and the viability, T/C [20] was 23.3%. It also gave a viability, T/C (second compound 10 µM, first compound 0.00316 µM) of 31.2%, a viability, T/C (second compound 10 µM, first compound 0.01 µM) of 27.5% and a viability, T/C [21] of 38.4%. The viability, T/C [22] was 32.7%, the viability, T/C [23] was 23.7% and the viability, T/C [24] was 28.7%.

Nc1ccn(C2OC(CO)C(O)C2(F)F)c(=O)n1 (stereo unspecified) + CNC(=O)c1ccc(Nc2nc(OC3CCCC3)c3c(-c4ccc5nc(C)oc5c4)c[nH]c3n2)c(OC)c1 showed an IC50 (second compound 0.0316 µM) of 939 nM, an IC50 (second compound 0.1 µM) of 125 nM and an IC50 (second compound 0.316 µM) of 86 nM. It also gave an IC50 (second compound 1 µM) of 119 nM, an IC50 (second compound 3.16 µM) of 158 nM and an IC50 (second compound 10 µM) of 72.4 nM. For the same compound, the viability, T/C [1] was 61.4%, the viability, T/C [2] was 57.8% and the viability, T/C [3] was 53.7%. The viability, T/C [4] was 50%, the viability, T/C [25] was 45.3% and the viability, T/C [26] was 39.6%. It also gave a viability, T/C [5] of 90.4%, a viability, T/C [6] of 50.8% and a viability, T/C [7] of 44.9%. It also gave a viability, T/C [8] of 46.1%, a viability, T/C [27] of 36.3% and a viability, T/C [28] of 42.1%. The viability, T/C [9] was 73.8%, the viability, T/C [10] was 46.7% and the viability, T/C [11] was 37.8%. The viability, T/C [12] was 40.6%, the viability, T/C [29] was 36% and the viability, T/C [30] was 37.5%. The viability, T/C [13] was 69.8%, the viability, T/C [14] was 51.4% and the viability, T/C [15] was 42.8%. For the same compound, the viability, T/C [16] was 32.2%, the viability, T/C [31] was 39.2% and the viability, T/C [32] was 43.8%. For the same compound, the viability, T/C [17] was 55.2%, the viability, T/C [18] was 60.7% and the viability, T/C [19] was 42.1%. It also gave a viability, T/C [20] of 40.4%, a viability, T/C [33] of 33.7% and a viability, T/C [34] of 34.1%. It also gave a viability, T/C [21] of 67.8%, a viability, T/C [22] of 42.9% and a viability, T/C [23] of 40.3%. It also gave a viability, T/C [24] of 33.7%, a viability, T/C [35] of 39.2% and a viability, T/C [36] of 40.6%.

O=c1[nH]cc(F)c(=O)[nH]1 + CNC(=O)c1ccc(Nc2nc(OC3CCCC3)c3c(-c4ccc5nc(C)oc5c4)c[nH]c3n2)c(OC)c1 was tested, and the IC50 (second compound 0.0316 µM) was over 10000 nM, the IC50 (second compound 0.1 µM) was over 10000 nM and the IC50 (second compound 0.316 µM) was over 10000 nM. The IC50 (second compound 1 µM) was 2180 nM, the IC50 (second compound 3.16 µM) was over 10000 nM and the IC50 (second compound 10 µM) was 3110 nM. The viability, T/C [1] was 102%, the viability, T/C [2] was 103% and the viability, T/C [3] was 89.9%. For the same compound, the viability, T/C [4] was 91.2%, the viability, T/C [25] was 82.2% and the viability, T/C [26] was 72.5%. The viability, T/C [5] was 100%, the viability, T/C [6] was 98.1% and the viability, T/C [7] was 86%. For the same compound, the viability, T/C [8] was 78.1%, the viability, T/C [27] was 87% and the viability, T/C [28] was 78.3%. The viability, T/C [9] was 79.3%, the viability, T/C [10] was 79.7% and the viability, T/C [11] was 68.9%. It also gave a viability, T/C [12] of 61.7%, a viability, T/C [29] of 58.3% and a viability, T/C [30] of 57.2%. The viability, T/C [13] was 68.2%, the viability, T/C [14] was 67.1% and the viability, T/C [15] was 51.6%. For the same compound, the viability, T/C [16] was 54.2%, the viability, T/C [31] was 51% and the viability, T/C [32] was 44.5%. It also gave a viability, T/C [17] of 58.3%, a viability, T/C [18] of 78.6% and a viability, T/C [19] of 73.1%. It also gave a viability, T/C [20] of 56.8%, a viability, T/C [33] of 52.5% and a viability, T/C [34] of 49.4%. For the same compound, the viability, T/C [21] was 60.6%, the viability, T/C [22] was 63.7% and the viability, T/C [23] was 70%. The viability, T/C [24] was 57.7%, the viability, T/C [35] was 46.4% and the viability, T/C [36] was 53.5%.
